Patent publication US20260248791A1, “METHODS FOR TREATING DERMATOMYOSITIS WITH BREPOCITINIB” (priority 2023, published 2026)

Legend:
[1] = tested on: cytokine signaling pathways that engage TYK2 and/or JAK1, including IFNα, IFNg, IL-12, and IL-23; test: Cytokine signaling in human whole blood; type: cell-based; conditions: IL-12, IL-23
[2] = tested on: Human skeletal muscle myoblasts (HSMM) differentiated into myotubes; test: IFN-I induced myotube damage (myosin 4 surface area); type: cell-based; conditions: for mean myosin surface area: 48 hours IFN-I
Method: (§1) Timeline for Brepocitinib efficacy evaluation for IFN-I induced pathological changes characteristic of DM in vitro. As shown in the schematic image of FIG. 1, human skeletal muscle myoblasts (HSMM) were cultured and differentiated into myotubes then treated with vehicle control or IFN-I (recombinant Human IFN alpha A and Human IFN alpha D) to induce cellular damage. Myotubes were also preincubated for 1 hour with Brepocitinib (1 μM or 130 nM, the latter is equivalent to the average free plasma concentration after administration of 30 mg once-daily) prior to IFN-I treatment. Immunofluorescence staining followed by image analysis to determine myosin 4 surface area were conducted after 48 hours of IFN-I treatment. Human dermal microvascular endothelial cells (HMEC-1) were cultured and, once vascular networks were established, cells were treated with IFN-I or vehicle control. Cells were also preincubated for 1 hour with Brepocitinib. Under light microscopy, 9 hours after treatment, the number of nodes, master segment length, and total mesh area were analyzed.
Human skeletal muscle myoblasts (Lonza, CC-2580) were cultured in SkGM™-2 media (Lonza, CC-3245) and sub-cultured using ReagentPack™ Subculture Reagents (Lonza, CC-5034). They were then differentiated into myotubes by culturing in differentiation medium [DMEM/F12+2% Horse serum (Thermofisher, 16050122)] for 3-5 days until most of the myoblast cells differentiated into multinucleated myotubes. The myotubes were then preincubated with vehicle or Brepocitinib prior to type I interferon (R&D, 11200-2) exposure at concentrations (FIG. 7). After 48 hours of treatment, cells were fixed and stained with Myosin 4 Monoclonal antibody (MF20; Thermofisher, 14-6503-82) and Hoechst for nuclei visualization. The effect on total myotube surface area was evaluated via fluorescent image analysis. […] The effect of type I IFN exposure±Brepocitinib treatment on the number of nodes, master segment length, and total mesh area was evaluated by taking bright-field images every 16 hours.

[3] = tested on: Human dermal microvascular endothelial cells (HMEC-1); test: IFN-I induced endothelial cell damage (vascular network); type: cell-based; conditions: Brepocitinib preincubation
Method: as §1, with “Human dermal microvascular endothelial cells (HMEC-1) were cultured and, once vascular networks were established, cells were treated with IFN-I or vehicle control. Cells were also preincubated for 1 hour with Brepocitinib.” left out
Human skeletal muscle myoblasts (Lonza, CC-2580) were cultured in SkGM™-2 media (Lonza, CC-3245) and sub-cultured using ReagentPack™ Subculture Reagents (Lonza, CC-5034). […] The effect on total myotube surface area was evaluated via fluorescent image analysis. […] The effect of type I IFN exposure±Brepocitinib treatment on the number of nodes, master segment length, and total mesh area was evaluated by taking bright-field images every 16 hours.

[4] = Dose-response across Phase 2 studies; type: in vivo, human; conditions: normalized responder rate vs average daily dose across Phase 2 studies
[5] = tested on: psoriatic arthritis; test: Phase 2 study in psoriatic arthritis (ACR20); type: in vivo, human; conditions: 30 mg; after 4 weeks; psoriatic arthritis patients
Description: (§2) As part of the clinical development program for oral Brepocitinib, a number of Phase 1 and Phase 2 studies have been completed or have a report in preparation. […] The multiple autoimmune diseases for which there is observed clinical efficacy data for Brepocitinib have mechanistic pathway similarities to DM. For example, psoriasis is driven by IL-17, which is downstream of IL-12 and IL-23 signaling via TYK2 and/or JAK1, and alopecia areata is characterized by excessive activity of IFN-γ, a type II interferon which also signals via JAK1. Of note, dose dependent reductions in IP-10 (CXCL10), an IFN-γ inducible gene, have been observed in Brepocitinib clinical studies, separating from placebo at doses ≥10 mg QD. Importantly, in these phase 2 studies, clinical response with Brepocitinib treatment rapidly separates from placebo. For example, in the phase 2 study assessing Brepocitinib's efficacy in psoriatic arthritis, Brepocitinib 30 mg achieved a 52% ACR20 response rate after 4 weeks compared to a 19% response rate in placebo patients.

[6] = tested on: IP-10 (CXCL10); test: IP-10 reduction in clinical studies; type: in vivo, human; conditions: dose dependent reductions in clinical studies
Description: as §2

[7] = tested on: psoriatic arthritis, plaque psoriasis, ulcerative colitis, alopecia areata, and hidradenitis suppurativa; test: 5 completed Phase 2 placebo-controlled studies; type: in vivo, human; conditions: each of 5 placebo-controlled Phase 2 studies
Description: Primary efficacy endpoints with Brepocitinib. […] These clinical data, along with the overlapping pathogenic cytokine profile, support the rationale for evaluating Brepocitinib in DM.

[8] = Solubility across physiological pH range; type: physicochemical
[9] = Dissolution from immediate-release tablets; type: physicochemical; conditions: in 30 minutes; 30 mg tablet, pH 6.8 phosphate buffer, USP Apparatus II, 75 rpm
Method: Dissolution: […] An illustrative dissolution profile for a prototype 30 mg tablet in pH 6.8 phosphate buffer using USP Apparatus II, 75 rpm is shown in FIG. 6. […] The final to-be-marketed product will be tested in all three-pH media for confirmation of rapid dissolution. The to-be-marketed product will be developed at a commercial manufacturing site that is to be decided and will be different from that used to manufacture the current clinical trial material.

[10] = Broad off-target panel; conditions: functional assays, ligand binding, enzyme activity
[11] = tested on: transgenic (Tg) mice; test: 6-month carcinogenicity study in Tg mice; type: in vivo; conditions: 6-month Tg mouse study
Description: (§3) Immunotoxicity and phototoxicity studies have also been conducted. Carcinogenicity studies in Tg mice (6 month) and rats (2 year) have been completed. […] Brepocitinib-related findings consistent with the mechanism of action (lower thymus weight and cellularity, infection) or not relevant to humans (exacerbation of chronic progressive nephropathy in the kidney) were also observed. Fertility studies in rats have been completed.

[12] = tested on: male rat; test: Fertility study in rats; type: in vivo; conditions: 55 mg/kg/day
Description: as §3

[13] = tested on: cytokine-induced phosphorylation of STATs in human PBMCs and whole blood; test: Cytokine-induced STAT phosphorylation; type: cell-based
Description: (§4) Pharmacology. Brepocitinib inhibits various TYK2- and JAK1-dependent functions in different cell types such as cytokine-induced phosphorylation of signal transducer and activator transcriptions (STATs) in human peripheral blood mononuclear cells (PBMCs) and whole blood; differentiation of T helper (Th) 1, Th17, and B cells, interleukin (IL)-12-induced IFNγ production in human PBMCs; and IFN-1 gene signature induced by immune complexes in human PBMCs.

[14] = tested on: T helper (Th) 1, Th17, and B cells; test: Differentiation of Th1, Th17 and B cells; type: cell-based
Description: as §4

[15] = tested on: human PBMCs; test: IL-12-induced IFNγ production; type: cell-based
Description: as §4

[16] = tested on: human PBMCs; test: IFN-1 gene signature induced by immune complexes; type: cell-based
Description: as §4

[17] = tested on: rat adjuvant-induced arthritis; test: Rat adjuvant-induced arthritis disease model; conditions: in vivo
Description: as §4

[18] = Tolerability in clinical studies to date; type: in vivo, human
Description: Brepocitinib is being evaluated in a double-blind, randomized, placebo-controlled Phase 3 study in DM (NCT0543726; VALOR Study). With a planned enrollment of 225 subjects, the VALOR Study is the largest well-controlled trial in DM to date. Adult patients with definite or probable idiopathic inflammatory myopathy (IIM), who meet the subclassification criteria for DM, have both muscle and skin disease involvement (classic DM), and are receiving (or are not responsive to or are intolerant to) corticosteroids and/or immunomodulatory/immunosuppressive therapies are eligible to enroll. The primary endpoint is the total improvement score (TIS) at week 52. The TIS is a composite endpoint based on the following six CSM scores: the Physician Global Disease Activity, the Patient Global Disease Activity, the Health Assessment Questionnaire, MMT-8, Extramuscular Disease Activity, and muscle enzymes. To evaluate the steroid-sparing effect of Brepocitinib, participants using glucocorticoids at baseline must taper to an oral glucocorticoid dose of prednisone≤5 mg/day (or equivalent) by week 36.

[19] = human
[20] = human, plasma, 2 μM
[21] = tested on: CYP3A4/5; conditions: human
[22] = target: CYP1A2 (Homo sapiens, UniProt P05177)
[23] = clinical; conditions: human, in vivo
[24] = target: P-glycoprotein (P-gp; MDR1; ABCB1) (Homo sapiens, UniProt P08183); test: P-glycoprotein substrate status
[25] = target: P-gp (Homo sapiens, UniProt P08183); test: In vitro transporter inhibition, P-gp
[26] = target: breast cancer resistance protein (BCRP) (Homo sapiens, UniProt Q9UNQ0); test: In vitro transporter inhibition, BCRP
[27] = target: organic cation transporter (OCT) 1 (Homo sapiens, UniProt O15245); test: In vitro transporter inhibition, OCT1
[28] = target: OCT2 (Homo sapiens, UniProt O15244); test: In vitro transporter inhibition, OCT2
[29] = tested on: rats; test: Chronic oral toxicology study in rats; conditions: end of study exposure
[30] = target: multidrug and toxin extrusion (MATE) 1 (Homo sapiens, UniProt Q96FL8); test: In vitro transporter inhibition, MATE1
[31] = tested on: cynomolgus monkeys; test: Chronic oral toxicology study in monkeys; conditions: end of study exposure
[32] = Cardiovascular safety pharmacology studies; conditions: oral administration
[33] = In vitro profiling for metabolic drug-drug interactions; conditions: direct inhibition and induction mechanisms

Chain of organic cation transporter (OCT) 1 (O15245 whole entry): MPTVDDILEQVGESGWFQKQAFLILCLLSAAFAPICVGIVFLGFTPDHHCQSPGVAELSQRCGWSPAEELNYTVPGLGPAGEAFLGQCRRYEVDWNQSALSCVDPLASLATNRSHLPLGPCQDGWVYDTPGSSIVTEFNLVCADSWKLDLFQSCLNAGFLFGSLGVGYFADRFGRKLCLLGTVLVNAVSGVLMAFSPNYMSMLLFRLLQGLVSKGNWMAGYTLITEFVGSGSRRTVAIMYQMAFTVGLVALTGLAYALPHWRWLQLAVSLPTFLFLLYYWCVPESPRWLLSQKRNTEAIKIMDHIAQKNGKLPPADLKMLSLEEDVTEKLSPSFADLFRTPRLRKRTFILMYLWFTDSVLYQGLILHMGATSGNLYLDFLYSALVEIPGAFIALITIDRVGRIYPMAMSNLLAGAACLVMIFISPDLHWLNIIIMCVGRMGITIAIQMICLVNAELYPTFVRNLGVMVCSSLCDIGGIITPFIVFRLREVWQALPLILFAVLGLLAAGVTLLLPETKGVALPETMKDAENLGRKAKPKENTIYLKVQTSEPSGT
Chain of OCT2 (O15244 whole entry): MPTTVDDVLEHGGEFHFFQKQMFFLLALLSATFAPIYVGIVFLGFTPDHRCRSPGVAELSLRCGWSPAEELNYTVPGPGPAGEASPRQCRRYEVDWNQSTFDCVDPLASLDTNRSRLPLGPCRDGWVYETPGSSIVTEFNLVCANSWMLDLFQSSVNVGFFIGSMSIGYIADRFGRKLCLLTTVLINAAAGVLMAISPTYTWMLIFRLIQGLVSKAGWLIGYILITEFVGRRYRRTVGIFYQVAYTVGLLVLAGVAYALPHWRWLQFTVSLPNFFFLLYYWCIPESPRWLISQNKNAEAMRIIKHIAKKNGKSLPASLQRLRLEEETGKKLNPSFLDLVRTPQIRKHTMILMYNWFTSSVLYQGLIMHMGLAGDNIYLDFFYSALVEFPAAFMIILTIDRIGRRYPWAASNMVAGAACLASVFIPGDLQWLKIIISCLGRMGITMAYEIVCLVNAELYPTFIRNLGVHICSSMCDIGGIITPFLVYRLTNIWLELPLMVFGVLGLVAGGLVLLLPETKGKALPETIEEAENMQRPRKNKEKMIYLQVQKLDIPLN
Chain of P-glycoprotein (P-gp; MDR1; ABCB1) (P08183 whole entry): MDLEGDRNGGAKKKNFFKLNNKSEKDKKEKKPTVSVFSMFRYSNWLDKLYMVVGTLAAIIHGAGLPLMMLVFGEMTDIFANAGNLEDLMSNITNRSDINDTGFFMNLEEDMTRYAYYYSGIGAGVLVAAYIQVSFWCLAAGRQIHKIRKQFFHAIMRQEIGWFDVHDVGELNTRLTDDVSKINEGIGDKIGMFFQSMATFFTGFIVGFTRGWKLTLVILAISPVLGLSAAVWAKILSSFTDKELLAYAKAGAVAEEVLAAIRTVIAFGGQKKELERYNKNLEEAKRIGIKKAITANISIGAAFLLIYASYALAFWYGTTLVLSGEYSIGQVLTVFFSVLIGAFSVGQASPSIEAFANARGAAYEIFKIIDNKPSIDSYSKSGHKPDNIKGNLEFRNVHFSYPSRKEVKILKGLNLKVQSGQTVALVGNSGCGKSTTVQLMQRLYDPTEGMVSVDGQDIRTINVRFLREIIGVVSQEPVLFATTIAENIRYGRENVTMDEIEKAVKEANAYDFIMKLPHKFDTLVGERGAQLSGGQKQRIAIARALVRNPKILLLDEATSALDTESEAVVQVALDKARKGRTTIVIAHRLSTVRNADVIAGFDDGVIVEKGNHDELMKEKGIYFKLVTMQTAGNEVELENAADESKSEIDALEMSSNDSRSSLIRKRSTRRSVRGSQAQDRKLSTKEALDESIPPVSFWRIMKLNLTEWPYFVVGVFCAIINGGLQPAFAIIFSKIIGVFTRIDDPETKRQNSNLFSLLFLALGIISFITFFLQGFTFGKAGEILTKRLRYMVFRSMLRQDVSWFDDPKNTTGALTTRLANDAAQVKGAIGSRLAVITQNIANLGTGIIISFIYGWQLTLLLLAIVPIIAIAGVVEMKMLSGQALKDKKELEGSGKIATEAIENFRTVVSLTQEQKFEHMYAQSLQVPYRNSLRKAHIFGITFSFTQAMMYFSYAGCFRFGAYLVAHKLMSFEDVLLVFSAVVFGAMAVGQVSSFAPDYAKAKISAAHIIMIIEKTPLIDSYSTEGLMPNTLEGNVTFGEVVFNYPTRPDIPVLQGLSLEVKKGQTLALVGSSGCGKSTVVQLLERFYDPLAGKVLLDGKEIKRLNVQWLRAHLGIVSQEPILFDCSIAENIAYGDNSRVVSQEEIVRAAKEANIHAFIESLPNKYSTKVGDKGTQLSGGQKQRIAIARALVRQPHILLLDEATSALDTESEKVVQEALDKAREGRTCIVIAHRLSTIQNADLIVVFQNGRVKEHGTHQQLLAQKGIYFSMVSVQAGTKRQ
Chain of P-gp (P08183 whole entry): as above
Chain of CYP1A2 (P05177 whole entry): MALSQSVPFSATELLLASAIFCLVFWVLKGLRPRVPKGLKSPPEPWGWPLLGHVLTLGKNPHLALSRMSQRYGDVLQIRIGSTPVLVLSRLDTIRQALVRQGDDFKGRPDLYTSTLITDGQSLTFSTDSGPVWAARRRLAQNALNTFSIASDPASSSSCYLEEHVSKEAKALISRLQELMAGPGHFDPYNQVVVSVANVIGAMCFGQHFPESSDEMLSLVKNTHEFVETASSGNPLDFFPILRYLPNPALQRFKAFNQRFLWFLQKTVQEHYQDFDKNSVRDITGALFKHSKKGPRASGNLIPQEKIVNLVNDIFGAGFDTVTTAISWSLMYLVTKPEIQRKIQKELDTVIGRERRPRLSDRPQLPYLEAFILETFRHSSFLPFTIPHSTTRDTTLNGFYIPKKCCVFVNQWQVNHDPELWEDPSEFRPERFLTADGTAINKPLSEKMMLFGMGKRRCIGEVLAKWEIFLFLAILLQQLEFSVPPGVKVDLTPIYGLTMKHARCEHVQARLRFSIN
Chain of breast cancer resistance protein (BCRP) (Q9UNQ0 whole entry): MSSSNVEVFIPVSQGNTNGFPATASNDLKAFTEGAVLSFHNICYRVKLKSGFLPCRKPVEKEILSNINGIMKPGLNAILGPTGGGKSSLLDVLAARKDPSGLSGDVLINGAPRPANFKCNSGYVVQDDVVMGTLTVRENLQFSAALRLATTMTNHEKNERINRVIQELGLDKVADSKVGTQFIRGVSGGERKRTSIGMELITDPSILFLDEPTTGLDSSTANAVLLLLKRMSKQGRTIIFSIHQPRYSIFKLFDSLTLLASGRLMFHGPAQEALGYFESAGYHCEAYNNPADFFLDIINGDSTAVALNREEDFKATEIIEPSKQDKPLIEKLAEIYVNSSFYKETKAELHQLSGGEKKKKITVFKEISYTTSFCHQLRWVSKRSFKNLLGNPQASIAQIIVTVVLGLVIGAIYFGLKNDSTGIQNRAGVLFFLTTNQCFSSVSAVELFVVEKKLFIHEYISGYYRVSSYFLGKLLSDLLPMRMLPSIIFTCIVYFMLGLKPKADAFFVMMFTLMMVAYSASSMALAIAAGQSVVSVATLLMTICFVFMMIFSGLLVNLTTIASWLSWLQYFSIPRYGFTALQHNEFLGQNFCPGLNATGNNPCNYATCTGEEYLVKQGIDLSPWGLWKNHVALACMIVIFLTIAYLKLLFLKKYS

## Cn1cc(Nc2nccc(N3C[C@H]4CC[C@@H](C3)N4C(=O)[C@@H]3CC3(F)F)n2)cn1 [Brepocitinib, [(1S)-2,2-difluorocyclo-propyl][(1R,5S)-3-{2-[(1-methyl-1H-pyrazol-4-yl)amino]pyrimidin-4-yl}-3,8-diazabicyclo[3.2.1]oct-8-yl]methanone]
[1]
  Inhibition of cytokine signaling pathways implicated in DM: inhibited
[2]; 130 nM preincubation 1 hour
  mean myosin surface area: 94.1 % of the vehicle control
[2]; 1 μM preincubation 1 hour
  mean myosin surface area: 100 % of the vehicle control
[2]; Brepocitinib preincubation, 130 nM and 1 μM
  IFN-I induced damage in myotubes: almost completely prevented
[3]
  IFN-I induced damage in endothelial cells: almost completely prevented
[4]
  dose resulting in 50% maximal response: 15 mg QD
[5]
  ACR20 response rate: 52%
[6]
  doses at which IP-10 (CXCL10) reduction separates from placebo: ≥ 10 mg QD
[7]
  Primary efficacy outcome in Phase 2 studies: clinically meaningful and statistically significant results
[8]
  Solubility in 250 mL of the media: fully soluble
[8]; across the physiological pH range
  Solubility: highly soluble
[9]
  dissolution from immediate-release (IR) tablets: > 85%
[10]
  off-target pharmacology potential: low potential for off-target pharmacology
[11]
  neoplastic findings: No Brepocitinib-related neoplastic findings
[12]; highest dose tested
  effects on male rat fertility: No adverse effects
[12]; male rat fertility
  margin to clinical exposures at highest dose tested: > 50 fold
[13]
  cytokine-induced phosphorylation of STATs: inhibits
[14]
  differentiation of Th1, Th17, and B cells: inhibits
[15]
  IL-12-induced IFNγ production: inhibits
[16]
  IFN-1 gene signature induced by immune complexes: inhibits
[17]
  effect in rat adjuvant-induced arthritis: anti-inflammatory effects
[18]
  tolerability: generally well-tolerated
human, in vivo
  radiolabeled dose recovered as unchanged Brepocitinib in the urine: Approximately 8%
human, in vivo, po
  radiolabeled dose recovered as Brepocitinib metabolites in the urine: Approximately 80%
Not told
  Permeability: highly permeable
[19]; in vivo
  dose recovered in urine: ≤ 16%
  effect of food (high-fat meal) on absorption: does not have a clinically relevant effect on the extent of absorption
  fraction absorbed: approximately 100%
  increase of AUC(0-∞) and Cmax with dose: approximately dose-proportional
  time to steady state: ≤ 8 days
[19]; not told, po
  Permeability class according to the BCS criteria: high-permeability compound
[20]
  fraction of unbound drug: 0.609
[21]
  in vitro fraction metabolized: 0.77
[22]
  in vitro fraction metabolized: 0.14
[23]
  half-life: 4 to 8 h
[23]; absolute bioavailability
  bioavailability: ~75%
[23]; bioavailability of tablets relative to solution
  bioavailability: ~96%
[24]
  P-gp substrate status: substrate
[25]
  In vitro inhibition of P-gp: inhibition
[26]
  In vitro inhibition of BCRP: inhibition
[27]
  In vitro inhibition of OCT1: inhibition
[28]
  In vitro inhibition of OCT2: inhibition
[29]
  AUC exposure margin, NOAEL to clinical exposure of 30 mg QD: 54 fold
[30]
  In vitro inhibition of MATE1: inhibition
[31]
  AUC exposure margin, NOAEL to clinical exposure of 30 mg QD: 7.8 fold
[32]
  cardiovascular safety pharmacology findings: effects on blood pressure, heartrate, and corrected QT interval (QTc) interval were observed
[33]
  potential to be a perpetrator of metabolic drug-drug interactions: low potential
